The source of these data is patent US20250275968A1, “INHIBITORS OF TAU PROTEINS” (DEUTSCHES ZENTRUM FÜR NEURODEGENERATIVE ERKRANKUNGEN E.V., priority 2022, published 2025).

SMILES strings stand for the structures. Counter-ions that a name gives are not always drawn.

The target in one data set is T1, 2N4R tau (Homo sapiens, UniProt P10636).
T1 construct: Full-length 2N4R tau was incubated with Osimertinib mesylate
Briefly: In vitro seeded aggregation/fibrillization assay of 2N4R tau (ThT fluorescence). In kind it is biochemical. The settings on record: for In vitro seeded aggregation/fibrillization of full-length tau (ThT fluorescence curves): 2N4R tau, various formulations. The procedure:
Aggregation of 2N4R Tau was performed using a previously published co-factor-free aggregation protocol, with a few modifications (Reference: Chakraborty, P. et al. Co-factor-free aggregation of tau into seeding-competent RNA-sequestering amyloid fibrils. Nat. Commun. 12, 4231 (2021)). Aggregation experiments used the Tau protein stock prepared in 25 mM HEPES pH 7.4, 1 mM TCEP. Stocks of compounds were prepared in aggregation buffer (25 mM HEPES, 10 mM KCl, 5 mM MgCl2, pH 7.2) or in DMSO (10 mM compound).
To prepare the Tau fibril seeds by de novo aggregation, 2N4R Tau at a monomer concentration of 25 μM was diluted in aggregation buffer. The working concentration of TCEP in the aggregation mixture was <25 μM after dilution of the stock. To this mixture, Thioflavin T (ThT) was added to a final concentration of 50 μM. A total volume of 100 μL of the Tau-ThT mixture was incubated in a well of a 96-well microplate (Greiner Bio-one), in the presence of two polytetrafluoroethylene beads. The microplate was subjected to a program implemented in a Tecan Spark plate reader that involved incubating at 37° C., with intervals of double orbital shaking and ThT fluorescence emission measurement. The excitation wavelength for ThT was set as 430 nm and the emission wavelength was 485 nm. Details of this plate reader program were published previously (Reference: Chakraborty, P. et al. Co-factor-free aggregation of tau into seeding-competent RNA-sequestering amyloid fibrils. Nat. Commun. 12, 4231 (2021)). […] The fibril-containing mixture collected from the microplate served as a seeding mixture for the subsequent aggregation assays.
Seeded aggregation assays were performed as described above but with 1.0% of the well volume occupied by the seeding mixture sonicated for 1 minute. The assays were performed in the presence and absence of compounds, and working concentrations ranged from 0-250 μM compound.
Analyses of the fluorescence curves were performed using Graphpad PRISM version 8. Fluorescence data were fit to a sigmoid function. The number of hours corresponding to half-maximal ThT Fluorescence™ as well as the span of fluorescence intensity (Span) were determined for each sigmoid curve. Statistically significant differences were determined by one-way ANOVA analysis with Dunnett's multiple comparison test or unpaired t-test.

The subject of data set [1] is HEK293T biosensor cells expressing the human tau repeat domain (RD) harboring the P301L/V337M mutation (TauRD^LM-GFP). Briefly: HEK biosensor cell tau seeding assay. In kind it is cell-based. The note with it: for compound concentration up to which total amount of cells remained close to 100% (low toxicity): HEK biosensor cells, relative to vehicle (DMSO). The protocol:
Compound stock solutions were prepared as 10 mM compound in DMSO.
HEK293T biosensor cells expressing the human tau repeat domain (RD) harboring the P301L/V337M mutation and fused to a C-terminal GFP tag (named TauRD^LM-GFP) were engineered to probe Tau seeding in cellula (Reference: Liu, S., Hossinger, A., Heumüller, S E. et al. Highly efficient intercellular spreading of protein misfolding mediated by viral ligand-receptor interactions. Nat Commun 12, 5739 (2021). https://doi.org/10.1038/s41467-021-25855-2). HEK cells expressing the P301L human full-length Tau, C-terminally tagged with GFP were incubated with pre-sonicated hTau40^P301L fibrils to induce Tau aggregate formation. Cells were harvested and the resulting cell lysate was used to seed Tau aggregation in further experiments with HEK TauRD^LM-GFP cells.
In a typical seeded assay, HEK cells were incubated with cell lysate, compounds (0-40 μM) and lipofectamine for 22-48 hours. Negative control experiments in the absence of compounds (only with vehicle DMSO) and in the presence of cell lysate were performed in parallel.
Dose response curves were constructed by quantifying the number of cells with aggregates for each compound concentration. The curves were fitted with a sigmoid function using Graphpad PRISM version 8. The inhibitory concentration at 50% activity (IC50) was determined for each compound.

The next data set addresses T2, 15N-labeled 2N4R tau (Homo sapiens, UniProt P10636).
T2 construct: Full-length 2N4R tau was incubated with Osimertinib mesylate
Briefly: SOFAST-HMQC NMR binding to monomeric tau. The settings on record: for binding to tau (NMR spectroscopy): 18 μM tau, 50 mM sodium phosphate pH 6.8, 16 h at 37° C., spectra at 5° C. An excerpt:
(A) Overlaid spectra of 2N4R tau with (black) and without (grey) a 100-fold molar excess of Osimertinib mesylate.
To obtain residue-specific information about the interaction between Tau and the compounds, ^1H-^15N correlation spectra of 2N4R Tau were monitored over the course of a titration with increasing amounts of compound. The ^1H-^15N SOFAST-HMQC (Reference: Schanda, P., Kupce, E. & Brutscher, B. SOFAST-HMQC experiments for recording two-dimensional heteronuclear correlation spectra of proteins within a few seconds. J. Biomol. NMR 33, 199-211 (2005)) spectra of [U-^15N]-Tau were acquired at 5° C. on a Bruker 800 MHz spectrometer equipped with a triple-resonance cryoprobe. Tau samples (18-25 μM) were prepared in NMR buffer containing 10% (v/v) D2O, and with compound concentrations that corresponded to Tau:compound mole ratios of 1:10 and 1:100. All NMR samples were incubated overnight (˜16 h) at 37° C. prior to spectral acquisition. Tau amide assignments were taken from a previous study (Reference: Mukrasch, M. et al. Structural polymorphism of 441-residue tau at single residue resolution. PLoS Biol. 7, e34 (2009)). However, because previous assignments were obtained using a Tau sample prepared in the presence of reducing agents, some amide resonances belonging to the repeat region of Tau (close to C291 and C322) were not unambiguously transferred to the SOFAST-HMQC spectra acquired under oxidizing conditions. Therefore, to obtain nearly complete backbone assignments in the repeat region, 3D HNCA, 3D HNCOCA, and 3D CBCACONH spectra were recorded for a [U-^13C,^15N]-4R Tau (K18 construct) sample prepared under the same buffer condition. The weighted, normalized chemical shift perturbations (CSP) were calculated as CSP=√[0.5 [(Δδ H)^2+(Δδ N)^2/25]. NMR signal intensity ratios, I/I0 (where I is the peak intensity of Tau amide backbone resonances in the presence of the compounds, and I0 is the peak intensity in the absence of the compounds), were calculated for each titration point.

[2] abbreviates: 2N4R tau^wt, mole ratios 1:3 and 1:10.

T2 sequence (P10636 1-441 isoform P10636-8): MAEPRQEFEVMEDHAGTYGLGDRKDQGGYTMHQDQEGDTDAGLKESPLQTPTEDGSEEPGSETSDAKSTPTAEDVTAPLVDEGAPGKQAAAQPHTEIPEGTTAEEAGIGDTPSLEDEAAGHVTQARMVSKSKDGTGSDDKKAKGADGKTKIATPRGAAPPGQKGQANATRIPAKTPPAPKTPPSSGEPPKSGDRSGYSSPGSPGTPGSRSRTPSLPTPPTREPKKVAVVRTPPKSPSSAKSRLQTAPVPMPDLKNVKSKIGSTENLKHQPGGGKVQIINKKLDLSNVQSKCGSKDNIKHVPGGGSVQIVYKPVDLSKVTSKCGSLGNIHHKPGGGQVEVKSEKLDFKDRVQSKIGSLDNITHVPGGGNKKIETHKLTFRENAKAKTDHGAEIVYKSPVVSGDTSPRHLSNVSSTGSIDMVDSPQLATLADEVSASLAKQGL
T1 sequence (P10636 1-441 isoform P10636-8): as above

As to `C=CC(=O)Nc1cc(Nc2nccc(-c3c[nH]c4ccccc34)n2)c(OC)cc1N(C)CCN(C)C` [Compound 3, N-[2-[[2-(dimethylamino)ethyl]methylamino]-5-[[4-(1H-indol-3-yl)-2-pyrimidinyl]amino]-4-methoxyphenyl]-2-Propenamide], the “In vitro seeded aggregation/fibrillization of full-length tau (ThT fluorescence curves)” value on 2N4R tau is listed as “inhibited in a dose-dependent manner”. Also, the “compound concentration up to which total amount of cells remained close to 100% (low toxicity)” value in data set [1] is listed as “about 5.0 μM”. Besides, at 15N-labeled 2N4R tau, the “binding to tau (NMR spectroscopy)” value is listed as “reveals binding”. In addition, the “NMR signal intensity ratio I/I0” value on 15N-labeled 2N4R tau (16 h incubation at 37° C.) is “above 1”.

As to `C=CC(=O)Nc1cc(Nc2nccc(-c3cn(C)c4ccccc34)n2)c(OC)cc1N(C)CCN(C)C` [Osimertinib mesylate, N-[2-(2-Dimethylaminoethylmethylamino)-4-methoxy-5-[[4-(1-methylindol-3-yl)pyrimidin-2-yl]amino]phenyl]prop-2-enamide Mesylate Salt], on 2N4R tau (setting [2]), the “normalized Span of ThT fluorescence” value is given as “statistically lower normalized Span values” and the “normalized Tm (midpoint of aggregation curve)” value is “do not show a clear dose-dependence”. Moreover, the “binding to tau (NMR spectroscopy)” value on 15N-labeled 2N4R tau is “reveals binding”.

On to `C=CC(=O)Nc1cc(Nc2nccc(-c3cn(C)c4ccccc34)n2)c(OC)cc1N(C)CCN(C)C` [Osimertinib, N-[2-(2-Dimethylaminoethylmethylamino)-4-methoxy-5-[[4-(1-methylindol-3-yl)pyrimidin-2-yl]amino]phenyl]prop-2-enamide], for which the “In vitro seeded aggregation/fibrillization of full-length tau (ThT fluorescence curves)” value on 2N4R tau was “inhibited in a dose-dependent manner”. For the same molecule, on 2N4R tau (2.5% (v/v) DMSO), the “inhibitory activity towards tau aggregation” value is “strong inhibitory activity”. The “inhibition of seeded aggregation of tau in HEK biosensor cells” value in data set [1] (0.25 μM or 7.5 μM, 22 hours, lipofectamine) was “inhibits the seeded aggregation of tau”. Besides, in data set [1], the “compound concentration up to which total amount of cells remained close to 100% (low toxicity)” value is reported as “about 5.0 μM”. Besides, in data set [1] (higher concentration (7.5 μM), 22 hours), the “aggregate formation in cells” value is “decreased aggregate formation”.
